# In publication doi:10.1101/2025.10.22.684062 (bioRxiv, 2025):
# Peptide text beside a SMILES is read from it.
# Columns and labels:
# [1] = In vivo plasma pharmacokinetics; conditions: ip, male C57BL/6 mouse, 5mg/kg intraperitoneal, LC-MS/MS
# Description: Blood samples (100 μl) were obtained at 0, 0.25, 0.5, 1, 2, 4, 8, and 24 hours via tail vein bleeds.
# [2] = tested on: B16-F10 melanoma tumors; assay: B16-F10 syngeneic mouse tumor model; assay type: in vivo, C57BL/6 mice; conditions: CST 10 mg/kg i.p. three times per week, tumor-bearing mice, n=9
# Description: Age-matched male and female C57BL/6 mice (7–9 weeks, n = 9) were subcutaneously injected with 5 × 10^4 B16-F10 cells in 100 μL PBS. […] Tumor dimensions were measured with calipers, and volume was calculated using the formula V = (length × width^2)/2. Mice were euthanized 22 days post-inoculation. All procedures were approved by the IACUC of UCSD and the VA San Diego Healthcare System and conformed to NIH guidelines.
# Tumors were fixed, paraffin-embedded, and sectioned (5 μm). Hematoxylin and eosin staining was performed at the La Jolla Institute for Immunology. Immunohistochemistry was carried out using the Super Sensitive™ M Polymer-HRP Kit (Biogenex). After deparaffinization, antigen retrieval was performed using Histo VT (Nacalai) at 90°C for 20 min. Sections were incubated overnight at 4°C with anti–Ki-67 (Abcam) or anti-CST (gift from Angelo Corti) at 1:100 dilution. Detection was performed with DAB and counterstained with hematoxylin. Slides were dehydrated and mounted in DPX. […]
# Apoptotic nuclei were detected in tumor sections using the CF®594 TUNEL Assay Kit (Biotium). […] Fluorescence images were obtained using a Keyence microscope.
# Tumor lysates were prepared in RIPA buffer containing protease inhibitors (Thermo Fisher). […] HRP-conjugated secondary antibodies (Cell Signaling Technology) were used, and signals were detected by chemiluminescence. […]
# [3] = tested on: Vemurafenib-sensitive A375 cell line; assay: Cell viability assay, Vemurafenib-sensitive (parental) A375 cells; assay type: cell-based; conditions: Homo sapiens, A-375
# Description: (§1) Viability was determined using the CCK-8 reagent (APExBIO). Absorbance was measured at 450 nm using a Varioskan LUX reader.
# (§2) Vemurafenib-resistant A375 cells were generated following established protocol. Parental cells were treated with 100 nM Vemurafenib for 2 weeks, followed by stepwise doubling of drug concentration every 2 weeks up to 3.2 μM. Surviving cells in maintenance culture containing 2 μM drug was used for downstream studies.
# [4] = tested on: Vemurafenib-resistant A375 cell line; assay: Cell viability assay, Vemurafenib-resistant A375 cells; assay type: cell-based, human
# Description: as §1, §2
"IC50 ([4]; Homo sapiens, vemurafenib-resistant A-375, Vemurafenib-resistant A375 cells) [nM]",Compound,half-life ([1]; read-out: t1/2 (half-life) (converted)) [h],"Cmax ([1]; tail vein bleeds 0-24 hours, read-out: Cmax (maximum concentration)) [ng/mL]",body weight and liver histology [2],IC50 [3] [nM],"fold increase of IC50, resistant versus parental A375 cells ([4]; resistant vs parental A375) [fold]"
–,"CSCC[C@H](NC(=O)[C@H](CO)NC(=O)[C@@H](N)CO)C(=O)N[C@@H](CCCCN)C(=O)N[C@@H](CC(C)C)C(=O)N[C@@H](CO)C(=O)N[C@@H](Cc1ccccc1)C(=O)N[C@@H](CCCNC(=N)N)C(=O)N[C@@H](C)C(=O)N[C@@H](CCCNC(=N)N)C(=O)N[C@@H](C)C(=O)N[C@@H](Cc1ccc(O)cc1)C(=O)NCC(=O)N[C@@H](Cc1ccccc1)C(=O)N[C@@H](CCCNC(=N)N)C(=O)NCC(=O)N1CCC[C@H]1C(=O)NCC(=O)N1CCC[C@H]1C(=O)N[C@@H](CCC(N)=O)C(=O)N[C@@H](CC(C)C)C(=O)O [CST, Catestatin] (H-SSMKLSFRARAYGFRGPGPQL-OH)",1.38,148,No major changes in body weight or liver histology,–,–
1430,CCCS(=O)(=O)Nc1ccc(F)c(C(=O)c2c[nH]c3ncc(-c4ccc(Cl)cc4)cc23)c1F [Vemurafenib],–,–,–,229,> 6
